How the values were obtained:
Format in all cases: cell-based, mouse
[1] = system: mHypoE-46 cell line; test: Gene expression by qRT-PCR in mHypoE-46 hypothalamic cell line; conditions: for Npy expression: 16 hr
Protocol: (§1) Hypothalamic neurons from embryonic and adult mice were previously immortalized to generate the clonal cell lines mHypoE-46, mHypoE-44, mHypoE-41, mHypoE-38, mHypoA-59, a FAC-sorted POMC/GFP mouse-derived cell line, mHypoA-POMC/GFP-2, and a mixed culture mHypoA-Bmal1-WT/F cell line (6, 13, 14). The mHypoE-46, mHypoE-44, and mHypoA-Bmal1-WT/F lines were cultured in DMEM containing 1000 mg/L glucose supplemented with 5% FBS and 1% pen/strep. The mHypoE-41, mHypoE-38, and mHypoA-59 cell lines were cultured in DMEM containing 4500 mg/L glucose supplemented with 2% FBS and 1% pen/strep. The mHypoA-POMC/GFP-2 line was cultured in DMEM containing 1000 mg/L glucose supplemented with 2% FBS and 1% pen/strep. All cells were maintained in 5% CO2 at 37° C. BAP was initially dissolved in DMSO solvent (vehicle control) to achieve 1000x the intended dose. The BAP solution was then diluted 1:1000 with the growth media used for the cell line. For co-treatment experiments, the vehicle control for ATP, UDP, and PKI was water, and for the H89 PKA inhibitor was DMSO. Neuropeptide gene expression levels were determined by qRT-PCR.
(§2) For cell culture experiments, total RNA was isolated using PureLink RNA isolation kit (Thermofisher Scientific, Burlington, ON, Canada) according to the manufacturer's instruction with on column DNase step (PureLink DNAse kit) or DNase I treatment to remove genomic DNA. For mouse experiments, total RNA was isolated using mirVana PARIS RNA and native protein isolation kit (Thermofisher Scientific). RNA quality and quantity were measured using Nanodrop 2000 and 500-1000 ng of complimentary DNA (cDNA) was synthesized with High Capacity cDNA Reverse Transcription kit (Applied biosystems, Thermofisher Scientific). Quantitative reverse transcription polymerase chain reaction (RT-qPCR) was performed with 12.5 ng of cDNA amplified with Platinum SYBR green qPCR SuperMix-UDG with ROX on an Applied Biosystems Prism 7900HT or PowerTrack Green Master Mix on an Applied Biosystems QuantStudio 5 and gene specific primers as per manufacturer's instructions (Table 1). Data was analyzed using […] and normalized to reference gene, either 60S ribosomal protein L7 (Rpl7) or Histone 3a (His).

[2] = system: mHypoA-59 cell line; test: Gene expression by qRT-PCR in mHypoA-59 hypothalamic cell line; conditions: ATP (data not shown)
Protocol: as §1, §2

[3] = system: mHypoE-41 cell line; test: Gene expression by qRT-PCR in mHypoE-41 hypothalamic cell line; conditions: 100 μM ATP, 16 hr
Protocol: as §1, §2

[4] = system: mHypoE-44 cell line; test: Gene expression by qRT-PCR in mHypoE-44 hypothalamic cell line; conditions: 16 hr
Protocol: as §1, §2

[5] = system: AMPK; test: AMPK phosphorylation by Western blot in mHypoE-46; conditions: 500 μM AICAR, 15 min, mHypoE-46, positive control
Protocol: mHypoE-46 cells were serum starved in 5.5 mM glucose (LG) DMEM for 1 hour prior to treatment with vehicle (0.1% DMSO), 100 µM BAP or H20, […] 5-Aminoimidazole-4-carboxamide ribonucleotide (AICAR) or 0 mM glucose DMEM. Protein was harvested using 1× cell lysis buffer (Cell Signaling Technologies, Inc, CST) containing protease and phosphatase inhibitors. A total of 30 μg protein was separated on a 12% SDS-polyacrylamide gels and transferred onto PVDF membranes. Membranes were blocked in 5% milk dissolved in Tris-buffered saline with Tween 20 (TBS-T) for 1 h and incubated with primary antibody overnight at 4° C. phospho-AMPKα (Thr172; cat. 2532S, CST), and total AMPKα (cat. 2535S, CST); phospho-p70-S6K (Thr389; cat. 9205S, CST) and total p70-S6K (cat. 9202S, CST); insulin receptor ß (cat. 3025S, CST); phospho-AKT (Ser473; cat. 9271S, CST) and total AKT (cat. 9272S, CST); phospho-ERK1/2 (Thr202/Tyr204; cat. 9101, CST) and total ERK (cat. 4695, CST) were diluted 1:1000 in 5% milk in TBS-T. Membranes were washed and incubated with secondary HRP-linked antirabbit antibody (1:7500 in 5% milk in TBS-T, CST) for 1 h, washed, and imaged using the Signal Fire ECL Reagent (CST) on the iBright 1500 Imaging System (Thermofisher). Protein density was quantified using ImageJ or the iBright Imaging System.

`Nc1ncnc2c1ncn2[C@@H]1O[C@H](COP(=O)(O)OP(=O)(O)OP(=O)(O)O)[C@@H](O)[C@H]1O` [ATP, reference compound] was tested, and the Npy expression ([1]; 100 μM ATP) was “induces the expression of Npy”, the Agrp expression [2] was “increased” and the Npy expression [2] was “increased”. For the same molecule, the Npy expression [3] was “induces the expression of Npy” and the Npy expression ([4]; 100 μM ATP) was “induces the expression of Npy”.
For `NC(=O)c1ncn([C@@H]2O[C@H](COP(=O)(O)O)[C@@H](O)[C@H]2O)c1N` [AICAR, 5-Aminoimidazole-4-carboxamide ribonucleotide, reference compound], the “AMPK phosphorylation (activation) vs vehicle” value [5] was “significantly activate AMPK”.
`O=c1ccn([C@@H]2O[C@H](COP(=O)(O)OP(=O)(O)OP(=O)(O)O)[C@@H](O)[C@H]2O)c(=O)[nH]1` [UTP, reference compound] was tested, and the Npy expression ([1]; 100 μM UTP, n=2 preliminary) was “no effect” and the “basal Npy expression” value ([4]; 100 μM UTP, n=2 preliminary) was “may decrease the basal expression of Npy”.
With `c1coc(CNc2ncnc3[nH]cnc23)c1` [kinetin] the “repression of Npy transcripts” value ([1]; 100 μM kinetin, 16 h, n=2 preliminary) was ~50%.
With `O=c1ccn([C@@H]2O[C@H](COP(=O)(O)OP(=O)(O)O)[C@@H](O)[C@H]2O)c(=O)[nH]1` [UDP, reference compound] the Npy expression ([1]; 100 μM UDP) was “no effect” and the Npy expression ([4]; 100 μM UDP) was “unable to affect the expression of Npy”.
